Assay results as given in the supplement of paper PMC10307832.

Columns and labels:
Assay in all cases: relative viability (nuclei count vs DMSO), 5 days (fraction); higher = more cells survive
[1] = compound: C1CC(C2=C(C1)C3=C(N2)C=CC(=C3)Cl)C(=O)N [Selisistat] + COc1cccc2cc(-c3nc([C@H]4CC[C@H](C(=O)O)CC4)n4ncnc(N)c34)[nH]c12 [OSI-027] (partner 0.5 µM)
Procedure, shortened: (§1)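 For relative viability, nuclei counts in treated wells were divided by those in vehicle wells. Lung cancer cell lines had been pin-tool dosed in 1536-well plates the day after seeding and cultured for 5 days, then fixed and stained in one step (final 0.05% Triton X-100, 1% formaldehyde, 1 ug/ml Hoechst) and imaged at 4×. Doses were one drug alone or a fixed anchor-drug dose plus five library-drug doses (not always all listed) in √10 steps, and values are duplicate-plate medians.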

[2] = compound: C1CC(C2=C(C1)C3=C(N2)C=CC(=C3)Cl)C(=O)N [Selisistat] + CS(=O)(=O)N1CCN(Cc2cc3nc(-c4cccc5[nH]ncc45)nc(N4CCOCC4)c3s2)CC1 [Pictilisib] (partner 1 µM)
Procedure, shortened: as §1

[3] = compound: C1CC(C2=C(C1)C3=C(N2)C=CC(=C3)Cl)C(=O)N [Selisistat] + C[C@]1(O)C[C@@H](c2nc(-c3ccc4ccc(-c5ccccc5)nc4c3)c3c(N)nccn32)C1 [Linsitinib] (partner 1 µM)
Procedure, shortened: as §1

[4] = compound: C1CC(C2=C(C1)C3=C(N2)C=CC(=C3)Cl)C(=O)N [Selisistat] + Cc1cc(Nc2cc(N3CCN(C)CC3)nc(Sc3ccc(NC(=O)C4CC4)cc3)n2)n[nH]1 [Tozasertib] (partner 0.1 µM)
Procedure, shortened: as §1

Row | Cell Line | relative viability ([1]; first compound 0.4 µM) | relative viability ([1]; first compound 1.265 µM) | relative viability ([1]; first compound 4 µM) | relative viability ([1]; first compound 12.65 µM) | relative viability ([1]; first compound 40 µM) | relative viability ([2]; first compound 0.4 µM) | relative viability ([2]; first compound 1.265 µM) | relative viability ([2]; first compound 4 µM) | relative viability ([2]; first compound 12.65 µM) | relative viability ([2]; first compound 40 µM) | relative viability ([3]; first compound 0.4 µM) | relative viability ([3]; first compound 1.265 µM) | relative viability ([3]; first compound 4 µM) | relative viability ([3]; first compound 12.65 µM) | relative viability ([3]; first compound 40 µM) | relative viability ([4]; first compound 0.4 µM) | relative viability ([4]; first compound 1.265 µM) | relative viability ([4]; first compound 4 µM) | relative viability ([4]; first compound 12.65 µM) | relative viability ([4]; first compound 40 µM)
1 | HCC-366 | 1.01 | 0.837 | 0.605 | 0.889 | 0.898 | 0.098 | 0.135 | 0.129 | 0.0936 | 0.207 | 0.808 | 0.582 | 0.336 | 0.577 | 0.618 | 0.0912 | 0.131 | 0.064 | 0.0918 | 0.0529
2 | HCC-827 | 0.763 | 0.766 | 0.705 | 0.746 | 0.768 | 0.86 | 0.91 | 1.03 | 0.962 | 1.04 | 0.873 | 0.873 | 0.941 | 0.948 | 1.01 | 0.418 | 0.429 | 0.444 | 0.389 | 0.392
3 | HOP-62 | 0.856 | 0.788 | 0.826 | 0.809 | 0.915 | 0.865 | 0.651 | 0.449 | 0.619 | 0.935 | 1.04 | 1.18 | 1.07 | 0.978 | 0.94 | 0.362 | 0.383 | 0.464 | 0.375 | 0.372
4 | IA-LM |  |  |  |  |  | 0.277 | 0.368 | 0.353 | 0.502 | 0.375 | 0.632 | 0.581 | 0.436 | 0.4 | 0.694 |  |  |  |  | 
5 | LC-2-ad | 0.987 |  | 0.693 | 0.85 | 0.794 | 0.538 | 0.424 | 0.333 | 0.426 | 0.565 | 0.88 | 0.846 | 0.867 | 0.808 | 0.856 | 0.535 |  | 0.378 | 0.433 | 0.529
6 | LCLC-97TM1 | 0.59 | 0.653 |  | 0.553 | 0.619 | 0.148 | 0.191 | 0.134 | 0.185 | 0.218 | 0.166 | 0.156 | 0.193 | 0.167 | 0.245 | 0.207 | 0.216 |  | 0.231 | 0.212
7 | LCLC-103H | 0.486 | 0.469 | 0.348 | 0.479 | 0.442 | 0.662 | 0.629 | 0.464 | 0.508 | 0.666 | 1.13 | 1.15 | 1.07 | 1.03 | 1.01 | 0.435 | 0.515 | 0.494 | 0.47 | 0.565
8 | LK-2 | 0.196 | 0.179 | 0.174 | 0.179 | 0.255 | 0.645 | 0.502 | 0.575 | 0.499 | 0.456 | 0.265 | 0.437 | 0.341 | 0.519 | 0.619 | 0.155 | 0.189 | 0.197 | 0.176 | 0.18
9 | LOU-NH91 | 0.814 | 0.715 | 0.675 | 0.756 | 0.708 | 0.538 | 0.496 | 0.485 | 0.532 | 0.512 | 0.999 | 0.95 | 0.848 | 1.08 | 0.937 | 0.784 | 0.626 | 0.598 | 0.703 | 0.673
10 | LU99A | 0.345 | 0.283 | 0.344 | 0.288 | 0.297 | 0.336 | 0.35 | 0.404 | 0.373 | 0.299 | 0.537 | 0.608 | 0.657 | 0.516 | 0.485 | 0.298 | 0.249 | 0.319 | 0.313 | 0.281
11 | NCI-H522 | 0.744 | 0.677 | 0.61 | 0.756 | 0.681 |  |  |  |  |  |  |  |  |  |  | 0.569 | 0.593 | 0.509 | 0.608 | 0.52
12 | NCI-H1299 |  |  |  |  |  | 0.778 | 0.744 | 1.02 | 0.849 | 0.692 | 1.06 | 1.01 | 0.996 | 0.974 | 0.991 |  |  |  |  | 
13 | NCI-H1563 | 0.761 | 0.761 | 0.76 | 0.655 | 0.703 | 0.559 | 0.639 | 0.649 | 0.605 | 0.623 | 1.08 | 1.15 | 1.17 | 1.07 | 0.83 |  |  |  |  | 
14 | NCI-H1623 | 0.421 | 0.413 | 0.366 | 0.46 | 0.451 |  |  |  |  |  |  |  |  |  |  | 0.445 | 0.433 | 0.355 | 0.407 | 0.405
15 | NCI-H1648 | 0.274 | 0.274 | 0.264 | 0.237 | 0.277 |  |  |  |  |  |  |  |  |  |  | 0.511 | 0.513 | 0.609 | 0.395 | 0.64
16 | NCI-H1650 | 0.633 | 0.517 | 0.551 | 0.534 | 0.611 | 0.692 | 0.59 | 0.516 | 0.589 | 0.548 |  |  |  |  |  | 0.355 | 0.301 | 0.404 | 0.34 | 0.334
17 | NCI-H1703 |  |  |  |  |  | 0.232 | 0.217 | 0.242 | 0.267 | 0.233 | 0.316 | 0.703 | 0.627 | 0.724 | 0.932 |  |  |  |  | 
18 | NCI-H1792 | 0.745 | 0.68 |  | 0.644 | 0.689 | 0.327 | 0.281 |  | 0.251 | 0.279 | 0.548 | 0.594 |  | 0.438 | 0.635 |  |  |  |  | 
19 | NCI-H2170 | 0.839 | 0.692 | 0.63 | 0.766 | 0.739 | 0.323 | 0.338 | 0.275 | 0.303 | 0.378 |  |  |  |  |  | 0.732 | 0.592 | 0.703 | 0.629 | 0.8
20 | NCI-H2342 | 0.654 | 0.589 | 0.493 | 0.577 | 0.628 |  |  |  |  |  |  |  |  |  |  | 0.504 | 0.502 | 0.504 | 0.502 | 0.57
21 | SW 900 | 0.447 | 0.57 | 0.462 | 0.495 | 0.484 |  |  |  |  |  |  |  |  |  |  | 0.677 | 0.563 | 0.589 | 0.567 | 0.559
